In ChEMBL document CHEMBL6177941, “Recent advances from computer-aided drug design to artificial intelligence drug design” (RSC Med Chem, 2024):
≈ marks a conversion by molar mass, not a printed value. Each block holds one compound with its values, some of them ahead of it.

Experiments:
Androgen receptor = molecular target: T1, Androgen receptor (Homo sapiens, UniProt P10275); assay: Inhibition of full length human Androgen receptor DNA binding domain dimerization
T1 sequence (P10275 whole entry): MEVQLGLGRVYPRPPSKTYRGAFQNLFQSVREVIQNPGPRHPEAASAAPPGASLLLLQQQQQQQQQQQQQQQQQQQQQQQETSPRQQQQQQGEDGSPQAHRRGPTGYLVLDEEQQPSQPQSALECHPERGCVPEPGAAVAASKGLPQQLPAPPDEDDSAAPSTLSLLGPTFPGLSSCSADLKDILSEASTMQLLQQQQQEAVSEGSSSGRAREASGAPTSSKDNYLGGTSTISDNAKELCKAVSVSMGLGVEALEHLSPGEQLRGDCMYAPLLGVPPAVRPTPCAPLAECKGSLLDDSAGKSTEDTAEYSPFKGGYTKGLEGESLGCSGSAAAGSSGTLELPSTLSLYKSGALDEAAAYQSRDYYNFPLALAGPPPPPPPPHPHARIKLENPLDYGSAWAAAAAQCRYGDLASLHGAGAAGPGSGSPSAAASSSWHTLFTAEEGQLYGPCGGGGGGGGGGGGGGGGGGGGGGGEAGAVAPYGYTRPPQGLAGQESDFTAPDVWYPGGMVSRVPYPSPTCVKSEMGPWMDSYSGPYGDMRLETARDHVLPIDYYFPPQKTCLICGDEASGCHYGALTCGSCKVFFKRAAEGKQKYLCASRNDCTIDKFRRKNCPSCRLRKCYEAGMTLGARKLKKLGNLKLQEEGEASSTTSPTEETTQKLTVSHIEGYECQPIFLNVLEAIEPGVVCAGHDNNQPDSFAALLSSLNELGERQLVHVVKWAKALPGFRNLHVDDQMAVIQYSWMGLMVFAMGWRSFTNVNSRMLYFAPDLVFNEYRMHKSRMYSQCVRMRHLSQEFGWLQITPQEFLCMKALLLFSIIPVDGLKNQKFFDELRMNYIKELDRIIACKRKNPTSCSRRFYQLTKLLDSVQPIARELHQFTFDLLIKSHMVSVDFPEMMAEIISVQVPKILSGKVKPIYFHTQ

Cannabinoid receptor 2 = Cannabinoid receptor 2 (Homo sapiens, UniProt P34972); assay: Binding affinity to human CB2 receptor assessed as inhibition constant
Chain of Cannabinoid receptor 2 (P34972 whole entry): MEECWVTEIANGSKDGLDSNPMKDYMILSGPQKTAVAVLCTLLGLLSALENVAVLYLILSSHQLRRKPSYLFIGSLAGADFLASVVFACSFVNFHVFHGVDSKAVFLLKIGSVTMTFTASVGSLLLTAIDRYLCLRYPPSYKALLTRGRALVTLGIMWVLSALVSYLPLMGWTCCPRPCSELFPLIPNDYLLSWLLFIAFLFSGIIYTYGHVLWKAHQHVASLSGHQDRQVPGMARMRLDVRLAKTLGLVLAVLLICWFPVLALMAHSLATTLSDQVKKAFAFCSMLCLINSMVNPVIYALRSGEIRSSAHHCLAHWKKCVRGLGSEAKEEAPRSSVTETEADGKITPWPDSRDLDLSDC

Escherichia coli = assay: Antibacterial activity against Escherichia coli
[1] = molecular target: Myeloid differentiation primary response protein MyD88 (Homo sapiens, UniProt Q99836); assay: Binding affinity to MYD88 Toll/interleukin-1 receptor domain (unknown origin) assessed as dissociation constant by SPR assay
Chain of Myeloid differentiation primary response protein MyD88 (Q99836 whole entry, the tested form may be a part): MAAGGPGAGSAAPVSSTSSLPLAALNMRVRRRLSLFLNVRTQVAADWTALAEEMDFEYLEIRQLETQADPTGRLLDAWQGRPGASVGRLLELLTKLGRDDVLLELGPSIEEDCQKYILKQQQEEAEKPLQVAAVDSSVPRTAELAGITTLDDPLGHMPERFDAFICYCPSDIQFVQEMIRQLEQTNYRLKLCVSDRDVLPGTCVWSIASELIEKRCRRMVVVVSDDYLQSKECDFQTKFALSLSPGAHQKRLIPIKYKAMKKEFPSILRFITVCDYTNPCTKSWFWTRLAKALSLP

Speckle-type POZ protein = Speckle-type POZ protein (Homo sapiens, UniProt O43791)
Chain of Speckle-type POZ protein (O43791 whole entry): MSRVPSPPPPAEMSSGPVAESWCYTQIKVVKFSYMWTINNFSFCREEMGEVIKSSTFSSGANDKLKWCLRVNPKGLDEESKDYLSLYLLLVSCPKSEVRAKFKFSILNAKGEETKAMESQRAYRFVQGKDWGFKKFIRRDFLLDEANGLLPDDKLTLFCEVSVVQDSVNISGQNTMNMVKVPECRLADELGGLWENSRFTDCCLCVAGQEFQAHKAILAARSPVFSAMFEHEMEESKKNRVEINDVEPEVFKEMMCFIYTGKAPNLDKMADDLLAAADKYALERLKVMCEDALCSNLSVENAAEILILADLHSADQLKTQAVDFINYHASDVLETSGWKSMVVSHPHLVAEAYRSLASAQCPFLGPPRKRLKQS

Staphylococcus aureus [2] = assay: microbe, parasite or virus in culture; settings: ATCC 35556, 24 h
Description: Antibacterial activity against wild type Staphylococcus aureus ATCC 35556 assessed as reduction in bacterial growth incubated for 24 hrs by CLSI protocol based broth micro-dilution method

Staphylococcus aureus [3] = assay: microbe, parasite or virus in culture; settings: ATCC 43300, 24 h
Description: Antibacterial activity against methicillin-resistant Staphylococcus aureus ATCC 43300 assessed as reduction in bacterial growth incubated for 24 hrs by CLSI protocol based broth micro-dilution method

VCaP = assay: Antiproliferative activity against human VCaP cells expressing ERG level assessed as reduction in cell viability incubated for 72 hrs by CCK8 assay
Acinetobacter baumannii = assay: microbe, parasite or virus in culture; settings: ATCC 17978
Description: Antibacterial activity against Acinetobacter baumannii ATCC 17978

[4] = molecular target: T2, Serine/threonine-protein kinase Sgk3 (Homo sapiens, UniProt Q96BR1); assay: Inhibition of SGK3 (unknown origin)
T2 sequence (Q96BR1 whole entry): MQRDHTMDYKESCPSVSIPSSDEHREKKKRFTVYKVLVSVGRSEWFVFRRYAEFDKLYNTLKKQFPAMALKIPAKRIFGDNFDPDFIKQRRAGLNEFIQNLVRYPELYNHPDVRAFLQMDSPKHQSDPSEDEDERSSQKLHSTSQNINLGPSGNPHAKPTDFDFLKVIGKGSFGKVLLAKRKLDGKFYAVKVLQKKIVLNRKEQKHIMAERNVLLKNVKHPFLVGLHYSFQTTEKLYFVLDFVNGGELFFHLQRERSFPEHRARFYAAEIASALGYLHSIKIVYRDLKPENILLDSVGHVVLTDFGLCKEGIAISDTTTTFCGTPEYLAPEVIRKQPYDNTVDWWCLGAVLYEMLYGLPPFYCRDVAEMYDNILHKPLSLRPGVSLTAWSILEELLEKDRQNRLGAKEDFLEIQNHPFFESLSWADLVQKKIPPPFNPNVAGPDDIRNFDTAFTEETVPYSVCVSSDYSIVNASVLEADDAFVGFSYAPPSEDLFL

[5] = Inhibition of Poly-L-Histidine tagged full length recombinant Trypanosoma cruzi Sir2p extracted from Escherichia coli BL21 (DE) using Abz-Gly-Pro-AcetylLys-Ser-Gln-EDDnp peptide as substrate incubated for 30 mins by fluorescence based analysis
[6] = molecular target: 5-hydroxytryptamine receptor 2A (Homo sapiens, UniProt P28223); assay: Agonist activity at human 5-HT2A receptor expressed in HEK293 cells incubated for 60 mins by BRET assay
Chain of 5-hydroxytryptamine receptor 2A (P28223 whole entry): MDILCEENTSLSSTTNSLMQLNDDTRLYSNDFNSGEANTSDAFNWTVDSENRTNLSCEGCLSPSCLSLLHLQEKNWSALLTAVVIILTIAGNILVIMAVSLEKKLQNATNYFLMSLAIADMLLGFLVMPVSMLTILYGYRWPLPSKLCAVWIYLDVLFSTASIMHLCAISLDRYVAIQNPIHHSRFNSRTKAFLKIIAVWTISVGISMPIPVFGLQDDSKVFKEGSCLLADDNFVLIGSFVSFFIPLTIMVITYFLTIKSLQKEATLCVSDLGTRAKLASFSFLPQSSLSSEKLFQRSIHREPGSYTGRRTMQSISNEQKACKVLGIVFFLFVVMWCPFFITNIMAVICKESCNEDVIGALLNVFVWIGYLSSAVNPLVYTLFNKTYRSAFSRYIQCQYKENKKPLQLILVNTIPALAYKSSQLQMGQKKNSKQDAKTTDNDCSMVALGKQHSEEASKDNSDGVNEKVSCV

[7] = molecular target: Tyrosine-protein kinase JAK2 (Homo sapiens, UniProt O60674); assay: Inhibition of JAK2 (unknown origin) by Z'-LYTE kinase assay
Chain of Tyrosine-protein kinase JAK2 (O60674 whole entry): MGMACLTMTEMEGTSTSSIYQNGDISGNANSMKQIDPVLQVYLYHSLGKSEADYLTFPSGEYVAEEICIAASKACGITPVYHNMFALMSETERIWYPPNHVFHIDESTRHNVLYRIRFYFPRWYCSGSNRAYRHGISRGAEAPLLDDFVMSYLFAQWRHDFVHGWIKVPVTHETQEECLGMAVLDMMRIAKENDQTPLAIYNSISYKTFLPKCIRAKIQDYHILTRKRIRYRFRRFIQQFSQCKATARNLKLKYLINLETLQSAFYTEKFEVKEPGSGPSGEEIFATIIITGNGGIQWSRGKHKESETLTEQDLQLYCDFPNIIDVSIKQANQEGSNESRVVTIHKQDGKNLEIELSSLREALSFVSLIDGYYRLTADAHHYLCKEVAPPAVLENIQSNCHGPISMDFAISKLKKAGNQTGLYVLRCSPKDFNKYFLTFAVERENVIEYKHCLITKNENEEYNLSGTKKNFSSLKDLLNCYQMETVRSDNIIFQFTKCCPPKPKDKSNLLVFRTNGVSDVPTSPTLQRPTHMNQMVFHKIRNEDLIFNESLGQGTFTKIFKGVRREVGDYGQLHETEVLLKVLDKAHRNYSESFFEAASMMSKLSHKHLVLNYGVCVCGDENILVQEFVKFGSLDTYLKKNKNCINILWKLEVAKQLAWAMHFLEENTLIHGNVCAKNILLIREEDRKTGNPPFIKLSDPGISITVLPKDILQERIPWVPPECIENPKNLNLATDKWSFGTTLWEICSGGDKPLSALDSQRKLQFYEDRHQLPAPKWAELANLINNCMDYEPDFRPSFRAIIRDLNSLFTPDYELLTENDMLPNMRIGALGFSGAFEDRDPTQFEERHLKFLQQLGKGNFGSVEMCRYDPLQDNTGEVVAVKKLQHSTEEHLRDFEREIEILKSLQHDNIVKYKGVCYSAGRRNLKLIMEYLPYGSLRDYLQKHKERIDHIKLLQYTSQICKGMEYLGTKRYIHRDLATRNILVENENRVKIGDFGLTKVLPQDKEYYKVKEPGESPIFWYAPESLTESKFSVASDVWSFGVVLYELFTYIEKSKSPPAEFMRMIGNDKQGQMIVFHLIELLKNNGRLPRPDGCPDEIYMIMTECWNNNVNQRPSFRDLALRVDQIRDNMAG

[8] = molecular target: Rho-associated protein kinase 1 (Homo sapiens, UniProt Q13464)
Chain of Rho-associated protein kinase 1 (Q13464 whole entry, the tested form may be a part): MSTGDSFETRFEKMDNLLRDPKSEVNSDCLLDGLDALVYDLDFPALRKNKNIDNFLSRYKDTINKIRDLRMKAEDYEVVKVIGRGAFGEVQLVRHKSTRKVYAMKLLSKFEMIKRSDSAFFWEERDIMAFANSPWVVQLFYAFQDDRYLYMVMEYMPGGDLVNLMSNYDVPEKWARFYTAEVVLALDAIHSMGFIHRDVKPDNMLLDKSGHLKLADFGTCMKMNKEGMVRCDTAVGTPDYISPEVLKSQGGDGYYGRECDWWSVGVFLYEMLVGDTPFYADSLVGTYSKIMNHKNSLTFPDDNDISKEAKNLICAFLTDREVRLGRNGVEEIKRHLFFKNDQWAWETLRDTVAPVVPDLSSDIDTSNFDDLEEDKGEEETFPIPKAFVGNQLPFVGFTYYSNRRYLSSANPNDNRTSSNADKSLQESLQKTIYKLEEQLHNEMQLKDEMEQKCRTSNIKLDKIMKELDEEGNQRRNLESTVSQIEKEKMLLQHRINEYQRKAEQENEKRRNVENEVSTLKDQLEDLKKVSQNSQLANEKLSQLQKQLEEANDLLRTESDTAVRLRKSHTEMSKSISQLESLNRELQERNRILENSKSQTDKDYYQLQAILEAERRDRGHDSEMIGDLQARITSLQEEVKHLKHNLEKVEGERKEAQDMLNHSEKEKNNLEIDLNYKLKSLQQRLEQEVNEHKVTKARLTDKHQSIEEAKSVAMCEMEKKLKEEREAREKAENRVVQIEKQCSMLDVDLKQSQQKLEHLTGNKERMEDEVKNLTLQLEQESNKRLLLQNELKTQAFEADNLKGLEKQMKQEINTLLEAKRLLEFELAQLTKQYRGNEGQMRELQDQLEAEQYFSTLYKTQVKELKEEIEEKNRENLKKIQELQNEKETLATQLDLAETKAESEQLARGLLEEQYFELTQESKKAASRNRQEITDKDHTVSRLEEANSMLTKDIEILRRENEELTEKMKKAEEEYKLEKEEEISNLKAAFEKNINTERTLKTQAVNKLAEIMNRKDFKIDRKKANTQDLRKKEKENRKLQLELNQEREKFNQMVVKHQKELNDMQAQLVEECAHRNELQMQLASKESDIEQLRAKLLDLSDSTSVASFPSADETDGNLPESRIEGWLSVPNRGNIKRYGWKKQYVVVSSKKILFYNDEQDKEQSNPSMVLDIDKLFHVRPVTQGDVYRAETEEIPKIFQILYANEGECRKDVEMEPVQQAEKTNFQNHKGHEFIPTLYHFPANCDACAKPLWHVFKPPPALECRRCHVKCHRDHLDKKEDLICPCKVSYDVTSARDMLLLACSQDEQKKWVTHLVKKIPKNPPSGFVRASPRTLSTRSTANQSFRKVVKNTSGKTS
Description: Binding affinity to N-terminal GST-tagged human ROCK1 catalytic domain (1 to 477 residues) expressed in Sf21 insect cells assessed as inhibition constant by NanoBRET intracellular kinase assay

[9] = molecular target: Epithelial discoidin domain-containing receptor 1 (Homo sapiens, UniProt Q08345)
Chain of Epithelial discoidin domain-containing receptor 1 (Q08345 whole entry, the tested form may be a part): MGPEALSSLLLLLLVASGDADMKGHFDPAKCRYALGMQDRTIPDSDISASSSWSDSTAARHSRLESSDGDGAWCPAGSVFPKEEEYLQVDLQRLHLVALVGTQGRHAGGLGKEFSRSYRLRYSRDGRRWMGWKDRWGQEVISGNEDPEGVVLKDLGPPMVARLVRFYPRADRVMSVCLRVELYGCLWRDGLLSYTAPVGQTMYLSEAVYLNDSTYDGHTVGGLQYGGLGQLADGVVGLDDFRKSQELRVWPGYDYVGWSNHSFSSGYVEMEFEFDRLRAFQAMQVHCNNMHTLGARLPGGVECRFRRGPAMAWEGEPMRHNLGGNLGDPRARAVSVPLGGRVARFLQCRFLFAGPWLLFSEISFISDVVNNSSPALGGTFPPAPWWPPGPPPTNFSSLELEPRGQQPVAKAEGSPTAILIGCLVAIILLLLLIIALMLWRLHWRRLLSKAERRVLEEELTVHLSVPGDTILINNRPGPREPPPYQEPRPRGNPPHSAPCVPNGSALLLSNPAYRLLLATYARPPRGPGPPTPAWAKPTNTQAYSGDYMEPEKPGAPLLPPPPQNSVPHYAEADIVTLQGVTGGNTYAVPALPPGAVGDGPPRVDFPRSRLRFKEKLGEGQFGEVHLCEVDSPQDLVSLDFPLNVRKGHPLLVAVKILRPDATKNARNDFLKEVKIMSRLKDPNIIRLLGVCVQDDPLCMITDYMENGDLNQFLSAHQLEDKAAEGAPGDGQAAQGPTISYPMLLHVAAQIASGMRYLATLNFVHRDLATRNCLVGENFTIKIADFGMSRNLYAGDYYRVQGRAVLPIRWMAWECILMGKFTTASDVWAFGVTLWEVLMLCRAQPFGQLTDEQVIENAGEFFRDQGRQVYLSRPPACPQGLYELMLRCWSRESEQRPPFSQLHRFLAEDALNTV

MOLT-4 = assay: Antiproliferative activity against human MOLT-4 cells assessed as reduction in cell growth incubated for 72 hrs by Cell-titer glo luminescent cell viability assay; settings: MOLT-4, 72 h

Structure (SMILES): COCC(C)(NC(=O)c1ccc(N2CCCCC2)c(S(=O)(=O)N2CCCCC2)c1)C1CC1 (configuration not stated)
Ki (Cannabinoid receptor 2): 0.9 nM

Structure (SMILES): Nc1nnc(Sc2ncc([N+](=O)[O-])s2)s1
MIC (Escherichia coli): 2 µg/mL (≈ 7.65 µM)

Structure (SMILES): CC1(C)[C@H]2Cc3cc(-c4cc5c(cn4)[C@@H]4C[C@H](C5)C4(C)C)ncc3[C@@H]1C2
MIC (Staphylococcus aureus [2]): 8 µg/mL (≈ 23.2 µM)
MIC (Staphylococcus aureus [3]): 8 µg/mL (≈ 23.2 µM)

Structure (SMILES): O=C(N/N=C/c1ccc([N+](=O)[O-])o1)c1ccc(O)cc1 [NIFUROXAZIDE]
IC50 (VCaP): 2560 nM

Structure (SMILES): O=C1Nc2ccccc2C2(CCN(CCc3ccc(C(F)(F)F)cc3)CC2)O1
MIC (Acinetobacter baumannii): 2 µg/mL (≈ 5.12 µM)

Structure (SMILES): COc1ccc(/C=C/c2[nH]c(=O)[nH]c(=O)c2[N+](=O)[O-])cc1OC
IC50 [4]: 179000 nM

Structure (SMILES): O=C(NCc1coc(-c2ccccc2)n1)Nc1ccc(-c2noc(C(F)(F)F)n2)cc1
IC50 [5]: 40000 nM

Structure (SMILES): C[C@@H]1C=C(c2c[nH]c3ncccc23)CN(C)C1
EC50 [6]: 110 nM

The remaining lines, values ahead:

IC50 (Androgen receptor): 2000 nM
Structure (SMILES): O=C(NCc1cccc2ccccc12)NCC(O)(c1cccs1)c1cccs1

Kd [1]: 165000 nM
Structure (SMILES): O=C(CN1CCC(CCc2ccccc2)CC1)Nc1n[nH]c2ncccc12

IC50 (Speckle-type POZ protein): 4510 nM
Structure (SMILES): Cc1nnc(SCC2=C(C(=O)O)N3C(=O)[C@@H](NC(=O)c4ccc(COc5ccccc5Cl)o4)[C@H]3SC2)s1

IC50 (Androgen receptor): 5000 nM
Structure (SMILES): CC(O)(CNC(=O)/C=C/c1ccnc2ccccc12)c1ccsc1 (configuration not stated)

IC50 [7]: 70 nM
Ki [8]: 38 nM
IC50 [9]: 10 nM
IC50 (MOLT-4): 116 nM
Structure (SMILES): COCc1cccc(CC(=O)Nc2ccc(-c3cn[nH]c3)cc2)c1
